Assay results published in patent US8466291B2, “1,5-dideoxy-1,5-imino-D-glucitol compounds” (Academia Sinica, priority 2008, dated 2013).

How the values were obtained:
Human O-GlcNAcase = target: T1, Human O-GlcNAcase (Homo sapiens, UniProt O60502); assay: Inhibition of human O-GlcNAcase; type: biochemical; settings: Table 2
T1 construct: made in house
T1 sequence (O60502 1-916): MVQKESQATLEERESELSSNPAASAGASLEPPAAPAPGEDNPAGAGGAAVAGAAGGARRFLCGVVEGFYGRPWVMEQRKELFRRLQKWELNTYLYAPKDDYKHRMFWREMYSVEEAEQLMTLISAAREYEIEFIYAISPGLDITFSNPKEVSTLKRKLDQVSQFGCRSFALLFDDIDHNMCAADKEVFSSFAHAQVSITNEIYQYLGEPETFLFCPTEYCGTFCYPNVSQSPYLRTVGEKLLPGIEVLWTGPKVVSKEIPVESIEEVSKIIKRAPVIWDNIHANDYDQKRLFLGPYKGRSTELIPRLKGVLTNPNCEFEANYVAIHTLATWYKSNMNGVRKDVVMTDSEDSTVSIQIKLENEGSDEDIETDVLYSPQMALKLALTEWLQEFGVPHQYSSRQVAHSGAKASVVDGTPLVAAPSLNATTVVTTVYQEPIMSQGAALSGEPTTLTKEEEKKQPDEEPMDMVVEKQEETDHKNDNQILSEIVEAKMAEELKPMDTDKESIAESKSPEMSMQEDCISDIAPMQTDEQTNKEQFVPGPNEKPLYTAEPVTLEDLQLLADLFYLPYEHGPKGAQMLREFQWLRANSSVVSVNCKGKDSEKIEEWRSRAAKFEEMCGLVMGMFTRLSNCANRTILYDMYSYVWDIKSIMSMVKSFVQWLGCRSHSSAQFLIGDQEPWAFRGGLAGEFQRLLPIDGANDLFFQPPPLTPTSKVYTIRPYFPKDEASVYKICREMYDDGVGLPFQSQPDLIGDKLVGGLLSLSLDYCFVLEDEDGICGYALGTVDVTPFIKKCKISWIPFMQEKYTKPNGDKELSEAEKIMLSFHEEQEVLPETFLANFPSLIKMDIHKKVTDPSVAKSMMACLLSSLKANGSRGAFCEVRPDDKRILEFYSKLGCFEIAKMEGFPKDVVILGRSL
Procedure: Human O-GlcNAcase was also prepared and tested according to the procedures described in Gao et al., J. Biol. Chem. 2001, 276, 9838-9845 and Macauley et al., J. Am. Chem. Soc. 2005, 127, 17202-17203.

[1] = test system: BV2 cells (mouse microglia cells); assay: GM2 ganglioside accumulation in BV2 microglia cells by Western blot; type: cell-based; settings: different concentrations, 16 hr, Western blot with anti-Ganglioside asialo GM2 antibody
Procedure: BV2 cells (mouse microglia cells) were cultured in DMEM for 24 hr in 60-mm tissue culture dishes. The cells were washed once with PBS (pH 7.4), and 2 mL of fresh medium with or without biotin conjugated Compound 5 (at different concentrations) was added to each dish. After being incubated in a 5% CO2 incubator at 37° C. for 16 hr, the BV2 cells were harvested, re-suspended in a solution containing PBS and 2×SDS lysis buffer (250 mM Tris, pH 6.8/4% SDS/20% glycerol/0.002% bromophenol blue/10% 2-mercaptoethanol) at a ratio of 1:1 to produce whole cell lysates. The cell lysates were boiled and then subjected to SDS-PAGE (15%) using a mini-gel apparatus (Biorad, Germany). Substances contained in the gel were transferred to a nitrocellulose membrane (Millipore) at 1 mA/cm^2 using a semidry blot system (Biorad, Germany). The membrane was blocked with a Tris-buffered saline (TBST) (50 mM Tris-HCl, pH 7.5; 150 mM NaCl; 0.1% Tween-20) containing 5% skim-milk and then blotted with an anti-Ganglioside asialo GM2 antibody and an anti-GAPDH antibody.

human Hex B (FLAG-HexB) = target: T2, human Hex B (FLAG-HexB) (Homo sapiens, UniProt P07686); assay: Immunoprecipitation / streptavidin pull-down and Western blot from 293T/FLAG-HexB cell lysate; type: binding; settings: 200 nM, room temperature 10 min
T2 construct: FLAG (N); expressed in transfected cells
T2 sequence (P07686 122-556): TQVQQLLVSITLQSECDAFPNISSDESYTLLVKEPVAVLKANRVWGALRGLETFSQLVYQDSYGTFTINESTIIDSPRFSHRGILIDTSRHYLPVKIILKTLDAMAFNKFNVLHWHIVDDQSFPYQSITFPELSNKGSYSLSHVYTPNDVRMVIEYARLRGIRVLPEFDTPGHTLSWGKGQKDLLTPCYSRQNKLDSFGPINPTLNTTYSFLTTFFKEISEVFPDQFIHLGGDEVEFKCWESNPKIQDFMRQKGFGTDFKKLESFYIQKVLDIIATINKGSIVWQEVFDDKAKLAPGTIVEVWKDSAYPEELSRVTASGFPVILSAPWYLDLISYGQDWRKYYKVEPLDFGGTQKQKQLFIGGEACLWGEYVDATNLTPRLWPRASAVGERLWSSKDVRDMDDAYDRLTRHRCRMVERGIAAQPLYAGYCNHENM
Procedure: A DNA fragment encoding human Hex B was amplified by PCR and cloned into pCMV-Tag 2B vector (Stratagene) to produce FLAG-tagged HexB expression plasmid (pFLAG-HexB). This plasmid was introduced into 293T cells to establish a cell line stably expressing FLAG-HexB. Briefly, 293T cells were maintained in Dulbecco's modified Eagle's medium (DMEM) supplemented with 10% (by volumn) heat inactivated fetal bovine serum (FBS), 2 mM glutamine, 100 units/mL penicillin and 100 μg/mL streptomycin at 37° C. in a 5% CO2 atmosphere. These cells were transfected with expression plasmid pFLAG-HexB and plasmid pBabe-puro (carrying a puromycin resistance gene) at a molar ratio of 30-40:1. 8 hours later, the transfected cells were fed with fresh medium and incubated for 16 h. These cells were then cultured in puromycin-containing (2 μg/mL) medium for 2-3 weeks to screen for puromycin-resistant clones.
Binding of Compound 5 to FLAG-HexB were further confirmed by immuno-precipitation and Westernblot assays. The 293T/FLAG-HexB cells were lysed with a lysis buffer containing 1% NP-40, 10 mM Tris-HCl at pH 7.4, 150 mM NaCl, 2 mM EDTA, 1 mM phenylmethylsulfonyl fluoride, and a proteinase inhibitor cocktail (Sigma), and the cell lysate was then incubated at room temperature for 10 min in the presence or absence of Compound 5 (200 nM). […]

## CC(=O)NC1CN(CCCCCCCNC(=O)CCCCC2SCC3NC(=O)NC32)C(CO)C(O)C1O (stereo not shown) [Compound 5]
Human O-GlcNAcase; Human O-GlcNAcase over human HEX B
  Selectivity (KI O-GlcNAcase/KI HEX): 5,400
Human O-GlcNAcase; Human O-GlcNAcase
  Ki: 145 ± 1.77 µM
[1]
  ganglioside GM2 accumulation: accumulated in Compound 5-treated BV2 cells in a dose-dependent manner
Human Hex B (FLAG-HexB)
  association of FLAG-HexB with compound (streptavidin-agarose beads): FLAG-HexB protein was attached to the streptavidin-agarose beads
